Reference: US20230078089A1, “Regulating Activation of Fibroblasts to Prevent Fibrosis” (THE J. DAVID GLADSTONE INSTITUTES, A TESTAMENTARY TRUST …, priority 2020, published 2023)

Tests used:
[1] = tested on: several rodent models of HF; settings: background description; cited from earlier work
[2] = tested on: distal elements (incl. Meox1 enhancer) in fibroblasts, myeloid and endothelial cells; test: single cell ATAC sequencing of non-CM heart nuclei from TAC mice, chromatin accessibility of distal elements; assay type: in vivo, mouse
Procedure: (§1) Cell isolation from mouse hearts was performed as described by Li et al. (J. Vis. Exp. (2014)) with modifications. Briefly, after proper anesthesia level was reached, thoracotomy was performed, and mouse heart was isolated. The isolated heart was cannulated and perfused with perfusion buffer (120.4 mM NaCl, 14.7 mM KCl, 0.6 mM KH2PO4, 0.6 mM Na2HPO4, 1.2 mM MgSO4, 10 mM Na-HEPES, 4.6 mM NaHCO3, 30 mM taurine, 10 mM 2,3-butanedione monoxime, and 5.5 mM glucose, pH 7.0) in a Langendorff perfusion system (Radnoti 120108EZ) for 5-10 minutes at 37° C. The cannulated heart was then digested by digestion buffer (perfusion buffer with 300 units/mL collagenase II (Worthington Biochemical) and 50 μM CaCl2)) for about 10 min at 37° C. At the end of digestion, the atria and great vessels were removed, and the ventricular tissue was transferred to and gently teased into small pieces in stop buffer (perfusion buffer with 10% fetal bovine serum) at 37° C. After gently pipetting, cell suspension was passed through a 250 uM strainer in a falcon tube and then at 30×g for 3 minutes at room temperature (RT). Then, the supernatant—containing most of the non-cardiomyocytes (CMs)—was divided from the pellet (containing the CM fraction). The non-CM fraction was centrifuged again at 30×g for 3 minutes at RT and the supernatant kept. The supernatant was then filtered with a cell strainer (70 um) and finally centrifuged at 400×g for 3 minutes at RT for eliminating debris. The non-CM pellet was finally resuspended in 1 mL cold PBS 0.5% BSA. 30 k cells were counted with trypan blue using a hemocytometer and then used for subsequent 10× Genomics Chromium single cell RNAseq preparation. For single cell ATAC, 500 k isolated and purified non-CMs were resuspended in […] lysis buffer (Tris-HCl 10 mM pH 7.4, NaCl 10 mM, MgCl2 3 mM, Tween-20 0.1%, P40 0.1%, Digitonin 0.01%, BSA 1% in Nuclease-free water), pipetted 10 times and kept on ice for 5 minutes. Nuclei were then washed 1 mL 1× PBS with 1% BSA and then […] at 4° C. The nuclei pellet was resuspended in 1 mL 1× PBS with 1% BSA and filtered with a 10 uM strainer (pluriSelect #43-50010-00). Nuclei were then counted with DAPI using a hemocytometer and finally 30 k non-CM nuclei used for subsequent 10× Genomics Chromium single cell ATACseq preparation. The CM-fraction was, after the first centrifugation, centrifugated again at 30×g for 3 minutes at RT in stopping buffer and the supernatant was discarded. The CM pellet was finally centrifuged at 400×g for 3 minutes in stopping buffer at RT and after discarding the supernatant, the cell pellet was lysed in Qiazol (miRNeasy kit—Qiagen) for subsequent RNA extraction.
After successful nuclei isolation, nuclei were then processed according to the 10× Genomics Single Cell ATAC kit v1.0 (PN-1000110) by first incubating with Tn5 Transposase for 1 hour, followed by GEM generation and barcode amplification using the 10× Genomics Chromium controller according to the manufacturer's instructions. Additional components used for library preparation include the Chromium Chip E Single Cell ATAC kit (PN-1000082) and Chromium i7 Multiplex Kit N, Set A primers (PN-1000084). Final libraries were sequenced on the NextSeq 500 (Illumina) for a quality control run and then on the NovaSeq (Illumina) for deeper sequencing. All the 8 samples (2× Sham, 2× TAC-Veh, 2× TAC-JQ1 and 2× TAC-JQ1 withdrawn) (FIG. 2C) were pooled and sequenced in one NovaSeq single lane. Sequencing parameters were selected according to the Chromium Single Cell ATAC v1.0 specifications. All libraries were sequenced to a median read depth of at least 2,500 fragments/nuclei. Raw sequencing reads were processed using the Cell Ranger ATAC v1.0 pipeline from 10× Genomics. In brief, reads were demultiplexed and aligned to the mouse mm10 genome. As a test of sample quality, a minimum of 70% of fragments overlapped targeted regions as defined by CellRanger. […]

isolated adult CMs = test: bulk RNA-Seq of isolated adult cardiomyocytes from TAC mice; assay type: in vivo, mouse
Procedure: Cell isolation from mouse hearts was performed as described by Li et al. (J. Vis. Exp. (2014)) with modifications. Briefly, after proper anesthesia level was reached, thoracotomy was performed, and mouse heart was isolated. The isolated heart was cannulated and perfused with perfusion buffer (120.4 mM NaCl, 14.7 mM KCl, 0.6 mM KH2PO4, 0.6 mM Na2HPO4, 1.2 mM MgSO4, 10 mM Na-HEPES, 4.6 mM NaHCO3, 30 mM taurine, 10 mM 2,3-butanedione monoxime, and 5.5 mM glucose, pH 7.0) in a Langendorff perfusion system (Radnoti 120108EZ) for 5-10 minutes at 37° C. The cannulated heart was then digested by digestion buffer (perfusion buffer with 300 units/mL collagenase II (Worthington Biochemical) and 50 μM CaCl2)) for about 10 min at 37° C. […] 30 k cells were counted with trypan blue using a hemocytometer and then used for subsequent 10× Genomics Chromium single cell RNAseq preparation. […] Nuclei were then counted with DAPI using a hemocytometer and finally 30 k non-CM nuclei used for subsequent 10× Genomics Chromium single cell ATACseq preparation. […]
Total RNA from CMs was extracted using miRNeasy kit (Qiagen) according to the manufacturer's instructions and quantified with Nanodrop (Thermo scientific). […] Reads were mapped to the mm10 reference mouse genome using STAR (v 2.7.3a) and assigned to Ensembl genes. […]

[3] = tested on: MEOX1 expression in human fibroblasts from liver; test: MEOX1 expression by qPCR in TGFβ-treated human liver fibroblasts; assay type: cell-based; settings: TGF-β1 10 ng/ml, JQ1 0.5 uM
Procedure: (§2) Human fibroblasts from lung (ATCC, #CRL-4058), liver (CELL APPLICATIONS INC, #712-05f) and kidney (Cell Biologics, #H-6016) were passaged and grown like the mouse cardiac fibroblasts (see “Generation of cardiac fibroblast immortalized cell line, culture condition and TGFβ stimulation” section for more details”). In brief, human fibroblasts were seeded at 1×10^5/well of 6 well plate at day 1. On day 2, the media was changed to the same basal media with 0.5% FBS. On the day 3, TGF-β1 (Peprotech #100-21C) was added into the media at a concentration of 10 ng/ml. JQ1 was added at a final concentration of 0.5 uM. Cells were collected on day 5 for RT-qPCR and gene expression analysis.

[4] = tested on: MEOX1 expression in human fibroblasts from lung; test: MEOX1 expression by qPCR in TGFβ-treated human lung fibroblasts; assay type: cell-based; settings: TGF-β1 10 ng/ml, JQ1 0.5 uM
Procedure: as §2

Meox1 expression = Meox1 expression by qPCR in TGF-β-treated cultured cardiac fibroblasts; assay type: cell-based, mouse; settings: TGF-β1 10 ng/ml, JQ1 500 nM
Procedure: JQ1 was synthesized and purified in the laboratory of Jun Qi (Dana-Farber Cancer Institute), as described by Filippakopoulos et al. (Nature 468, 1067-1073 (2010)). For in vivo experiments, a stock solution [50 mg/ml JQ1 in dimethyl sulfoxide (DMSO)] was diluted to a working concentration of 5 mg/ml in an aqueous carrier (10% hydroxypropyl b-cyclodextrin; Sigma C0926) using vigorous vortexing. Mice were injected at a dose of 50 mg/kg given intraperitoneally once daily. Vehicle control was an equal amount of DMSO dissolved in 10% hydroxypropyl b-cyclodextrin carrier solution. All solutions were prepared and administered using sterile technique. For in vitro experiments, JQ1 was dissolved in DMSO and administered to cells at 500 nM final concentration using an equal volume of DMSO as control.
A Tcf21MCM mouse (Acharya et al., Genesis 49, 870-877 (2011)) was crossed with a Rosa26-Ai6 mouse (Jackson Laboratory stock #007906) to generate a Tcf21^MCM/+; Rosa26^Ai6/+ mouse. At 10 weeks of age, intraperitoneal injection of Tamoxifen (75 mg tamoxifen/kg) was done for 5 days (once a day). […] As primary cells only undergo a pre-determined and finite number of cell divisions in culture, and then enter a state of replicative senescence, the inventors employed a widely used method for immortalizing mammalian cells in culture based on Simian virus 40 (SV40) T antigen expression. […]
Quantitative RT-PCR. […]

[5] = tested on: BET family of bromodomain proteins; settings: background description; cited from earlier work
[6] = tested on: non-CM compartment of mouse hearts; test: single cell RNA sequencing of non-CM heart cells from TAC mice; assay type: in vivo
Procedure: as §1
Single-cell droplet libraries from the non-CM cell suspension (2× Sham, 2× TAC-Veh, 2× TAC-JQ1 and 2× TAC-JQ1 withdrawn) (FIG. 2C) were generated in the 10× Genomics Chromium controller according to the manufacturer's instructions in the Chromium Single Cell 3′ Reagent Kit v.2 User Guide. Additional components used for library preparation include the Chromium Single Cell 3′ Library and Gel Bead Kit v.2 (PN-120237) and the Chromium Single Cell 3′ Chip kit v.2 (PN-120236). Libraries were prepared according to the manufacturer's instructions using the Chromium Single Cell 3′ Library and Gel Bead Kit v.2(PN-120237) and Chromium 7 Multiplex Kit (PN-120262). Final libraries were sequenced on the NextSeq 500 (Illumina) for a quality control run and then on the NovaSeq (Illumina) for deeper sequencing. All the 8 samples were pooled and sequenced in one single lane. Sequencing parameters were selected according to the Chromium Single Cell v.2 specifications. All libraries were sequenced to a mean read depth of at least 50,000 total aligned reads per cell. Raw sequencing reads were processed using the Cell Ranger v.2.2.0 pipeline from 10× Genomics. […]

[7] = tested on: MEOX1 expression in human fibroblasts from kidney; test: MEOX1 expression by qPCR in TGFβ-treated human kidney fibroblasts; assay type: cell-based; settings: TGF-β1 10 ng/ml, JQ1 0.5 uM
Procedure: as §2

For `Cc1sc2c(c1C)C(c1ccc(Cl)cc1)=NC(CC(=O)OC(C)(C)C)c1nnc(C)n1-2` (centres unmarked) [JQ1], the “prevention and treatment of heart failure” value [1] is given as “can prevent and treat HF”, the “accessibility of fibroblast regions that opened from Sham to TAC (Cluster 9)” value ([2]; fibroblasts) is given as “insensitive” and the “sensitivity of the enhancer downstream of Meox1 to stress and JQ1 exposure” value ([2]; fibroblasts, but not myeloid and endothelial cells) is given as “extremely sensitive”. The “accessibility of the 10 peaks of the Meox1 enhancer” value ([2]; fibroblasts, JQ1 treatment) was “closed with JQ1 treatment back to a Sham level”, the “increase in chromatin accessibility after TAC in fibroblasts” value ([2]; fibroblasts, JQ1 treatment) was “reversibly attenuated” and the “accessibility of dynamic fibroblast distal elements (Cluster 2) after withdrawal” value ([2]; fibroblasts, JQ1 withdrawal) was “robustly re-accessible”. For the same compound, the “accessibility of the 10 peaks of the Meox1 enhancer after withdrawal” value ([2]; fibroblasts, JQ1 withdrawn) was “re-opened”, the “accessibility of dynamic fibroblast distal elements (Cluster 2)” value ([2]; fibroblasts, closed in Sham, opened in TAC, JQ1 treatment) was “closed by JQ1” and the “attenuation of chromatin accessibility after TAC in myeloid and endothelial cells” value ([2]; myeloid and endothelial cells, JQ1 treatment) was “less evident”. The “overlap of CM transcriptome effects with transcriptomic signature of whole LV tissue” value (isolated adult CMs) was less than 3%, the “effects on the transcriptome of isolated adult CMs” value (isolated adult CMs; compared to published signature of whole LV tissue) was “modest” and the “TGFβ-induced MEOX1 expression” value [3] was “suppressed”. For the same compound, the “TGFβ-induced MEOX1 expression” value [4] was “suppressed”, the “TGF-β-induced Meox1 upregulation” value (Meox1 expression) was “suppressed” and the “potency as BET bromodomain inhibitor” value [5] was “potent inhibitor”. The “fibroblast cell state (scRNAseq clustering)” value ([6]; TAC JQ1-treated) was “dramatic reversion of this cell state to one that closely approached the Sham state”, the “myofibroblast cell state (Postn marker)” value ([6]; TAC JQ1-treated) was “shifted the myoFB cell state back toward a Sham-like state” and the “Meox1 expression in MyoFBs (scRNAseq) after withdrawal” value ([6]; TAC JQ1 withdrawn) was “robust re-induction”. The “fibroblast cell state (scRNAseq clustering) after withdrawal” value ([6]; TAC JQ1 withdrawn) was “shift of the FB population back to a TAC-like stressed state”, the “myofibroblast cell state (Postn marker) after withdrawal” value ([6]; TAC JQ1 withdrawn) was “reverts these cells back to myoFBs” and the “Meox1 expression in MyoFBs (scRNAseq)” value ([6]; TAC, BET inhibition with JQ1) was “abolished”. The “transcriptome of endothelial and myeloid compartments” value ([6]; TAC, JQ1 exposure) was “dynamic transcriptomic shifts” and the “TGFβ-induced MEOX1 expression” value [7] was “suppressed”.
